Here are results for four compounds from PubChem BioAssay AID1259407 (Chemical Carcinogenesis Research Information System (CCRIS), 2018).

Activity calls are given as the source filed them. The rule behind the calls is not given here.

For this data set, the system named is CCRIS mutagenicity, Ames/micronucleus/aberration tests. Briefly: CCRIS mutagenicity studies.
Setting [1] is: Test System: AMES SALMONELLA TYPHIMURIUM, Strain/Indicator: TA100, Metabolic Activation: NONE, Method: PREINCUBATION

Regarding `O=C1CCO1`, the mutagenic call was “active; positive” (Test System: AMES SALMONELLA TYPHIMURIUM, Strain/Indicator: TA100, Metabolic Activation: NONE, Method: STANDARD PLATE); “active; positive” (Test System: AMES SALMONELLA TYPHIMURIUM, Strain/Indicator: TA100, Metabolic Activation: RAT, LIVER, S-9, KC500 OR PHENOBARBITAL, Method: LIQUID SUSPENSION); “active; positive” (Test System: AMES SALMONELLA TYPHIMURIUM, Strain/Indicator: TA1535, Metabolic Activation: NONE, Method: STANDARD PLATE); “active; positive” (Test System: CHINESE HAMSTER V-79, Strain/Indicator: V-79/6-THIOGUANINE, Metabolic Activation: NONE, Method: FLASK ASSAY); “active; positive” (Test System: MOUSE LYMPHOMA, Strain/Indicator: L5178Y (TK+/TK-), Metabolic Activation: NONE, Method: SUSPENSION/PLATE); “active; positive” (Test System: MOUSE LYMPHOMA, Strain/Indicator: L5178Y (TK+/TK-), Metabolic Activation: RAT, LIVER, S-9, AROCLOR 1254, Method: SUSPENSION/PLATE). The mutagenic call is “active; positive” (Test System: UDS HUMAN FIBROBLASTS, Strain/Indicator: THY INCORP (NON-S-PHASE), Metabolic Activation: NONE, Method: LIQUID SCINTILLATION COUNTING); “active; positive” (Test System: UDS HUMAN LYMPHOCYTES, Strain/Indicator: THY INCORP (NON-S-PHASE), Metabolic Activation: NONE, Method: LIQUID SCINTILLATION COUNTING); “active; positive” (Test System: UDS RODENT PRIMARY CELLS, Strain/Indicator: THY INCORP (NON-S-PHASE), Metabolic Activation: NONE, Method: AUTORADIOGRAPHY).
Turning to `CCC=O`, the mutagenic call by setting is: (Test System: AMES SALMONELLA TYPHIMURIUM, Strain/Indicator: TA98, Metabolic Activation: NONE, Method: PREINCUBATION) “inactive; negative”; (Test System: AMES SALMONELLA TYPHIMURIUM, Strain/Indicator: TA98, Metabolic Activation: RAT, LIVER, S-9, AROCLOR 1254, Method: PREINCUBATION) “inactive; negative”; under setting [1], “inactive; negative”; (Test System: AMES SALMONELLA TYPHIMURIUM, Strain/Indicator: TA100, Metabolic Activation: RAT LIVER S-9, AROCLOR 1254, Method: PREINCUBATION) “inactive; negative”; (Test System: AMES SALMONELLA TYPHIMURIUM, Strain/Indicator: TA100, Metabolic Activation: RAT, LIVER, S-9, AROCLOR 1254, Method: PREINCUBATION) “inactive; negative”; (Test System: AMES SALMONELLA TYPHIMURIUM, Strain/Indicator: TA102, Metabolic Activation: NONE, Method: PREINCUBATION) “inactive; negative”. Also, the mutagenic call was “inactive; negative” (Test System: AMES SALMONELLA TYPHIMURIUM, Strain/Indicator: TA102, Metabolic Activation: RAT LIVER S-9, AROCLOR 1254, Method: PREINCUBATION); “inactive; negative” (Test System: AMES SALMONELLA TYPHIMURIUM, Strain/Indicator: TA102, Metabolic Activation: RAT, LIVER, S-9, AROCLOR 1254, Method: PREINCUBATION); “inactive; negative” (Test System: AMES SALMONELLA TYPHIMURIUM, Strain/Indicator: TA104, Metabolic Activation: NONE, Method: PREINCUBATION); “inactive; negative” (Test System: AMES SALMONELLA TYPHIMURIUM, Strain/Indicator: TA104, Metabolic Activation: RAT LIVER S-9, AROCLOR 1254, Method: PREINCUBATION); “active; positive” (Test System: CHINESE HAMSTER V-79, Strain/Indicator: V-79/6-THIOGUANINE (HGPRT), Metabolic Activation: NONE, Method: REPLATING); “inactive; negative” (Test System: CHINESE HAMSTER V-79, Strain/Indicator: V-79/6-THIOGUANINE, Metabolic Activation: NONE). Further, the mutagenic call by setting is: (Test System: CHINESE HAMSTER V-79, Strain/Indicator: V-79/OUABAIN (NA/K), Metabolic Activation: NONE, Method: REPLATING) “active; positive”; (Test System: UDS HUMAN HEPATOCYTES, Strain/Indicator: THY INCORP, Metabolic Activation: NONE, Method: AUTORADIOGRAPHY) “inactive; negative”; (Test System: UDS RAT HEPATOCYTES, Strain/Indicator: THY INCORP, Metabolic Activation: NONE, Method: AUTORADIOGRAPHY) “active; positive”.
For the compound `II`, for the setting “End Point: IN VITRO CHROMOSOMAL ABERRATIONS, Test System: SYRIAN HAMSTER EMBRYO (SHE) CELLS, Metabolic Activation: NONE”, the mutagenic call is “active; positive (structural changes)”.
On to `CC1=C(O)C(=O)CO1`, for which the mutagenic call under setting [1] is “active; positive” and the mutagenic call (Test System: AMES SALMONELLA TYPHIMURIUM, Strain/Indicator: TA100, Metabolic Activation: RAT, LIVER, S-9, PHENOBARBITAL AND 5,6-BENZOFLAVONE, Method: PREINCUBATION) was “active; positive”.
